Among the test systems are NCI-H460; HCT-15; KM12; COLO 205; SW-620; DU-145; SF-268; UO-31; HOP-92; EKVX; LOX IMVI; SN12C; RPMI-8226; MDA-MB-231; ACHN; HCC 2998; OVCAR-5; SF-539; MCF7.
Holding throughout (test): growth of human tumour cells (NCI), 48 h

12 compounds from ChEMBL document CHEMBL1201862, “PubChem BioAssay data set” (2004) can be followed below.

“And” between values parts separate entries of the source, which are not always exact repeats. Identical values can stand only once.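 Protocol summary: plate cells (96-well), add compound at 5 concentrations, incubate 48 h, interpolate endpoints linearly. Abbreviation: GI50, concentration required for 50% inhibition of growth.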 The source made the active and inactive calls. Rule as the data show it: active = GI50 up to about 1.1 µM and inactive = higher.

Regarding `Nc1ccc(-c2nc3ccccc3s2)cc1CO`, the GI50 is 68.4 µM (inactive) with NCI-H460; 61.8 µM in the assay with HCT-15; 41.7 µM (inactive) with KM12; > 100 µM (inactive) in the assay with COLO 205; > 100 µM (inactive) in the assay on SW-620; > 94.8 µM (inactive) in the assay with DU-145. In addition, the GI50 in the assay on SF-268 is > 73.5 µM (inactive); with UO-31 it was 10.5 µM (inactive); in the assay with HOP-92, > 54.8 µM (inactive); in the assay on EKVX, 7.46 µM (inactive); in the assay on LOX IMVI it was 84.3 µM (inactive); with SN12C, 45.8 µM (inactive). Besides, the GI50 is 49.1 µM (inactive) in the assay on RPMI-8226, > 70 µM (inactive) in the assay on MDA-MB-231, 13.5 µM (inactive) with ACHN and > 100 µM (inactive) in the assay on HCC 2998.

Turning to `CCOC(=S)SCC(=O)O`, the GI50 is > 100 µM (inactive) in the assay on NCI-H460; more than 100 µM in the assay with HCT-15; > 100 µM (inactive) in the assay on KM12; > 100 µM (inactive) in the assay on COLO 205; > 100 µM (inactive) with OVCAR-5; > 100 µM (inactive) with SW-620. In addition, the GI50 in the assay with SF-268, in the assay on UO-31, in the assay with SF-539, in the assay with HOP-92, with EKVX and in the assay on LOX IMVI was > 100 µM (inactive) each time. Moreover, the GI50 in the assay on SN12C, with RPMI-8226, in the assay with MDA-MB-231, in the assay on ACHN and in the assay with MCF7 was > 100 µM (inactive) throughout.

In the case of `Cc1ccccc1Nc1nc2ccccc2nc1NS(=O)(=O)c1ccccc1`, the GI50 was > 100 µM (inactive) with NCI-H460; more than 100 µM with HCT-15; > 100 µM (inactive) in the assay with KM12; > 100 µM (inactive) in the assay with COLO 205; > 100 µM (inactive) with OVCAR-5; > 100 µM (inactive) with SW-620. Moreover, the GI50 with SF-268 was > 100 µM (inactive); with UO-31, > 100 µM (inactive); with SF-539 it was 59.7 µM (inactive); in the assay on HOP-92, 47.5 µM (inactive); in the assay with EKVX it was > 100 µM (inactive); in the assay on LOX IMVI it was > 100 µM (inactive). The GI50 with SN12C, in the assay on RPMI-8226, in the assay with MDA-MB-231, with ACHN, with MCF7 and with HCC 2998 was > 100 µM (inactive) in each case.

As for `CC1(C)CC(=O)c2c(nc(SSc3nc4c(c(-c5ccccc5)c3C#N)C(=O)CC(C)(C)C4)c(C#N)c2-c2ccccc2)C1`, the GI50 in the assay with NCI-H460 was > 10 µM (inactive); in the assay with HCT-15 it was more than 10 µM; in the assay with KM12, > 10 µM (inactive); in the assay with COLO 205, > 10 µM (inactive); in the assay with OVCAR-5, > 10 µM (inactive); in the assay with SW-620 it was > 10 µM (inactive). In addition, the GI50 in the assay on DU-145, in the assay with SF-268, in the assay on UO-31, in the assay with SF-539, with HOP-92 and with EKVX was > 10 µM (inactive) throughout. In addition, the GI50 with LOX IMVI, in the assay with SN12C, in the assay on RPMI-8226, in the assay on ACHN, in the assay with MCF7 and in the assay on HCC 2998 was > 10 µM (inactive) each time.

Take `N#Cc1c(-c2ccccc2)c(C#N)c(=S)n(C2OC(CO)C(O)C(O)C2O)c1N` (configuration not stated): the GI50 in the assay with NCI-H460 was 94 µM (inactive); in the assay with HCT-15, more than 100 µM; with KM12 it was > 100 µM (inactive); in the assay on OVCAR-5, > 100 µM (inactive) and 85.1 µM (inactive); with SW-620, > 100 µM (inactive); in the assay with DU-145, > 100 µM (inactive). Further, the GI50 in the assay with SF-268 is > 100 µM (inactive); in the assay with SF-539, > 100 µM (inactive); in the assay on LOX IMVI it was 86.9 µM (inactive); in the assay with SN12C, > 100 µM (inactive); in the assay with RPMI-8226, > 100 µM (inactive) and 75.5 µM (inactive); in the assay with MDA-MB-231 it was > 100 µM (inactive). Also, the GI50 was 99.8 µM (inactive) and 61.2 µM (inactive) with ACHN; > 100 µM (inactive) and 96.4 µM (inactive) in the assay on HCC 2998.

On to `N#Cc1c(-c2ccccc2)c(C#N)c(=O)n(NS(=O)(=O)c2ccccc2)c1O`, for which the GI50 was > 100 µM (inactive) in the assay on NCI-H460; more than 100 µM in the assay on HCT-15; > 100 µM (inactive) with KM12; > 100 µM (inactive) in the assay with COLO 205; > 100 µM (inactive) in the assay on OVCAR-5; > 100 µM (inactive) in the assay on SW-620. The GI50 in the assay on SF-268, in the assay on SF-539, in the assay on HOP-92, in the assay on EKVX, in the assay with LOX IMVI and with SN12C was > 100 µM (inactive) throughout. Further, the GI50 in the assay on RPMI-8226, in the assay on MDA-MB-231, in the assay with ACHN, in the assay with MCF7 and in the assay on HCC 2998 was > 100 µM (inactive) each time.

Turning to `Cc1cc2[nH]c3c(C#N)c(-c4ccccc4)c(CN4CCOCC4)c(=O)n3c2cc1C`, the GI50 is > 100 µM (inactive) in the assay with NCI-H460; more than 100 µM in the assay with HCT-15; > 100 µM (inactive) in the assay with KM12; > 100 µM (inactive) in the assay on COLO 205; > 100 µM (inactive) with OVCAR-5; > 100 µM (inactive) in the assay with SW-620. For the same compound, the GI50 in the assay on SF-268, in the assay on UO-31, with SF-539, in the assay on EKVX, in the assay on LOX IMVI and with SN12C was > 100 µM (inactive) in each case. The GI50 in the assay on RPMI-8226, in the assay with MDA-MB-231, in the assay with ACHN, in the assay on MCF7 and in the assay with HCC 2998 was > 100 µM (inactive) each time.

For the compound `CCN(CC)CCC(=O)OC1C(C)=CC(C)C(=O)CC(C(C)CC2CCC(O)C(OC)C2)OC(=O)C2CCCCN2C(=O)C(=O)[C@@]2(O)OC(CCC2C)CC(OC)\C(C)=C/C=C/C=C/C(C)CC(C)C(=O)C1OC` (some centres not stated), the GI50 in the assay on HCT-15 was 1.75 µM; in the assay with KM12 it was 7.98 µM (inactive); with COLO 205, 12.1 µM (inactive); in the assay with OVCAR-5 it was 10.3 µM (inactive); in the assay with SW-620 it was 11.6 µM (inactive); in the assay with SF-268, 1.07 µM (active). For the same compound, the GI50 was < 0.01 µM (active) in the assay on UO-31; < 0.01 µM (active) with SF-539; < 0.01 µM (active) in the assay on HOP-92; < 0.01 µM (active) in the assay on EKVX; < 0.01 µM (active) in the assay with LOX IMVI; 6.37 µM (inactive) with SN12C. For the same compound, the GI50 in the assay with RPMI-8226 is 0.415 µM (active); with MDA-MB-231, 12.8 µM (inactive); with ACHN it was 1.05 µM (active); in the assay with MCF7, < 0.01 µM (active); in the assay with HCC 2998, 1.87 µM (inactive).

For the compound `Cc1nc2c(o1)C(=O)c1ccccc1/C2=N/c1ccccn1`, the GI50 with NCI-H460 was 14.6 µM (inactive); in the assay on HCT-15 it was 14 µM; in the assay on KM12 it was 21.7 µM (inactive); in the assay on COLO 205 it was 35.6 µM (inactive); in the assay with OVCAR-5, 17.9 µM (inactive); in the assay with SW-620, 17.8 µM (inactive). Moreover, the GI50 in the assay with SF-268 is 24.2 µM (inactive); with UO-31, 22.6 µM (inactive); in the assay with SF-539, 18.2 µM (inactive); in the assay with HOP-92, 18.2 µM (inactive); in the assay with EKVX, 17.7 µM (inactive); with LOX IMVI, 19.1 µM (inactive). Further, the GI50 is 24.9 µM (inactive) in the assay on SN12C; 17.4 µM (inactive) with RPMI-8226; 15.6 µM (inactive) in the assay with MDA-MB-231; 17.3 µM (inactive) in the assay with ACHN; 17.7 µM (inactive) in the assay on MCF7; 21.9 µM (inactive) with HCC 2998.

As to `CC(C)(CN1CCCCC1)C(/C=C/c1ccccc1)=N\NC(=O)N/N=C(/C=C/c1ccccc1)C(C)(C)CN1CCCCC1`, the GI50 in the assay with NCI-H460 was 1.38 µM (inactive); in the assay with HCT-15, 1.37 µM; in the assay with KM12, 2 µM (inactive); in the assay on COLO 205, 1.44 µM (inactive); in the assay with OVCAR-5, 4.29 µM (inactive); with SW-620 it was 1.7 µM (inactive). The GI50 was 3.24 µM (inactive) in the assay on SF-268; 1.13 µM (inactive) in the assay on UO-31; 1.75 µM (inactive) in the assay on HOP-92; 6.84 µM (inactive) in the assay on EKVX; 1.8 µM (inactive) in the assay on LOX IMVI; 1.89 µM (inactive) in the assay on SN12C. Moreover, the GI50 in the assay with RPMI-8226 was 1.27 µM (inactive); in the assay on MDA-MB-231, 1.36 µM (inactive); in the assay with ACHN it was 3.32 µM (inactive); in the assay with MCF7 it was 1.71 µM (inactive); in the assay on HCC 2998, 0.543 µM (active).

As for `O=C1NC(Nc2ccccc2)=N/C1=C\c1c(Cl)cccc1Cl`, the GI50 with NCI-H460 is 24.9 µM (inactive); with HCT-15, 49.8 µM; in the assay with KM12 it was 29.5 µM (inactive); in the assay on COLO 205, 31.3 µM (inactive); in the assay on OVCAR-5, 29 µM (inactive); in the assay with SW-620 it was 36.1 µM (inactive). Further, the GI50 with DU-145 is 24.7 µM (inactive); with SF-268 it was 29.3 µM (inactive); with UO-31 it was 4.42 µM (inactive); in the assay on SF-539 it was 22.1 µM (inactive); in the assay on HOP-92, 11.9 µM (inactive); in the assay on EKVX it was 20.6 µM (inactive). For the same compound, the GI50 in the assay on LOX IMVI is 62.7 µM (inactive); in the assay with SN12C it was 15.7 µM (inactive); in the assay with RPMI-8226, 33.5 µM (inactive); in the assay with ACHN, 37.5 µM (inactive); in the assay on MCF7 it was 19.4 µM (inactive); in the assay on HCC 2998, 21.4 µM (inactive).

For `O=C(CC1C(=O)Nc2ccccc2[S+]1[O-])Nc1ccc(Cl)cc1` (configuration not stated), the GI50 in the assay on NCI-H460 is > 100 µM (inactive); in the assay on HCT-15 it was more than 100 µM; with KM12, > 100 µM (inactive); in the assay on COLO 205, > 100 µM (inactive); with OVCAR-5, > 100 µM (inactive); with SW-620 it was > 100 µM (inactive). The GI50 in the assay with SF-268 is 57.5 µM (inactive); in the assay with UO-31 it was 35.1 µM (inactive); in the assay on SF-539, 23.7 µM (inactive); in the assay with HOP-92 it was 29 µM (inactive); in the assay with LOX IMVI, > 100 µM (inactive); in the assay with SN12C it was 72.4 µM (inactive). Further, the GI50 was > 100 µM (inactive) in the assay with RPMI-8226, 79.3 µM (inactive) in the assay with ACHN and 79.6 µM (inactive) with HCC 2998.
